Test results as given in patent US11820745B2, “PKC-activating compounds for the treatment of neurodegenerative diseases” (Synaptogenix, Inc., priority 2008, dated 2023).

Legend:
PKCγ = biological target: T1, PKCγ (Homo sapiens, UniProt P05129); experiment: Protein kinase C assay, purified PKC isozymes: PKCγ; format: biochemical; conditions: higher concentrations, 50-100 μM; data not shown
T1 construct: purchased Calbiochem
Procedure: (§1) Protein kinase C assay. Rat hippocampal cells were cultured and scraped in 0.2 ml homogenization buffer (20 triM Tris-HCl, pH 7.4, 50 mM NaF, 1 μg/ml leupeptin, and 0.1 mM PMSF) and homogenized by sonication in a Marsonix micro-probe sonicator (5 see, 10W). To measure PKC, 10 ul of cell homogenate or purified. PKC isozyme (purchased from Calbiochem) was incubated for 15 min at 37° C. in the presence of 10 μM histones, 4.89 mM CaCl2, 1.2 μg/μl phosphatidyl-L-serine, 0.18 μg/μl 1,2-dioctanoyl-sn-glycerol, 10 mM MgCl2, 20 mM HEPES (pH 7.4), 0.8 mM EDTA, 4 mM EGTA, 4% glycerol, 8 μg/ml aprotinin, 8 μg/ml leupeptin, and 2 mM benzamidine. 0.5 μCi [^γ-32P]ATP was added and ^32P-phosphoprotein formation was measured by adsorption onto phosphocellulose as described previously. Nelson and Alkon, J. Neurochemistry. 1995; 65: 2350-57. For measurements of activation by BR-101 (DCP-LA) and similar compounds, PKC activity was measured in the absence of diacylglycerol and phosphatidyl serine, as described by Kanno et al., and PKC δ, ε, η, and μ were measured in the absence of added EGTA and CaCl2, as described by Kanno et al., J. Lipid Res. 2006; 47: 1146-50. […]
(§2) To determine their PKC isozyme specificity, the new compounds were preincubated with purified PKC for five minutes and the PKC activity was measured radiometrically.

other PKC isoforms = experiment: Protein kinase C assay, purified PKC isozymes: other isoforms; format: biochemical; conditions: data not shown
Procedure: as §1, §2

[1] = test system: Endothelin-converting enzyme (ECE); experiment: ECE assay in SH-SY5Y neuroblastoma cells; format: cell-based, human; conditions: bryostatin 0.27 nM, BR-101 1 μM, BR-111 1 μM; FIG. 10
Procedure: ECE assay. SH-S757 neuroblastoma cells were incubated with bryostatin (0.27 nM), BR-101 (PCP-LA) (1 μM), and BR-111 (DHA-CP6) (1 μM). Endothelin-converting enzyme (ECE) was measured fluorimetrically using the method of Johnson and Ahn, Anal. Biochem. 2000; 286: 112-118. A sample of cell homogenate (20 μl) was incubated in 50 mM MES-KOH, pH 6.0, 0.01% C12E10 (polyoxyethylene-10-tauryl ether), and 15 μM McaBK2. (7-Methoxycournarin-4-acetyl [Ala7-(2,4-Dinitrophenyl)Lys9]-bradykinin trifluoroacetate salt) (Sigma-Aldrich). After 60 min at 37° C., the reaction was quenched by adding trifluoroacetic acid to 0.5%. The sample was diluted to 1.4 ml with water and the fluorescence was measured at ex=334 nm, em=398 nm.

PKCε = biological target: T2, PKCε (Homo sapiens, UniProt Q02156); conditions: Kanno et al.; cited from earlier work
T2 construct: purchased Calbiochem
T2 sequence (Q02156 1-737): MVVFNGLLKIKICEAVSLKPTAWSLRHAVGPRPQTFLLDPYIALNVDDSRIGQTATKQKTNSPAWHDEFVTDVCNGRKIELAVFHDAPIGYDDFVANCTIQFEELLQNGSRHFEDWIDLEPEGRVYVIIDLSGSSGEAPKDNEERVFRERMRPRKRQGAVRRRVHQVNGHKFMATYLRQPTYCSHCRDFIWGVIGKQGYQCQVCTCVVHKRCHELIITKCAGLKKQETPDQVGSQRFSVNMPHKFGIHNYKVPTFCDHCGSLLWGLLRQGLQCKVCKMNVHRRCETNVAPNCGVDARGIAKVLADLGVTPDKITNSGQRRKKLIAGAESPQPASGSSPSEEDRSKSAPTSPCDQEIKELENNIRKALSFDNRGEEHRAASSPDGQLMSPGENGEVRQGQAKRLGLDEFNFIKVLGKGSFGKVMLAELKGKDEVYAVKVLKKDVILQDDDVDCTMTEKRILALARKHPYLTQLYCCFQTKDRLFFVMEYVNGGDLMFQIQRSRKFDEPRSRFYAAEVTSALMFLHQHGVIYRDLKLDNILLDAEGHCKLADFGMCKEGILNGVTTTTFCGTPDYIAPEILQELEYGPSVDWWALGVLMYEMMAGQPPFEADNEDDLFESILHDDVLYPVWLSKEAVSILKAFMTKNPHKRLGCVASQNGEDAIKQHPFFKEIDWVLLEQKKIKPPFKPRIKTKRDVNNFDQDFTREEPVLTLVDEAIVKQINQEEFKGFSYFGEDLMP

Aβ = experiment: Degradation of exogenously applied Aβ in SH-SY5Y neuroblastoma cells; format: cell-based, human; conditions: 0.01 to 10 μM; 100 nM exogenous monomeric Aβ-42; 24 h; FIG. 8
Procedure: Cell culture. Rat hippocampal H19-71GF-IR cells (ATCC, Manassas, Va.) were plated onto poly-L-lysine coated plates and grown at 35° C. in DMEM/10% FCS for several days until about 50% coverage was obtained. The cells were then induced to differentiate into a neuronal phenotype by replacing the medium with 5 ml N2 medium containing 10 ng/ml basic fibroblast growth factor at 39° C. and grown in T-75 flasks at 37° C. Human SH-SY5Y neuroblastoma cells (ATCC) were cultured in 45% F12K/45% MEM/10% FCS. Mouse N2A neuroblastoma cells were cultured in DMEM/10% FCS without glutamine. Rat hippocampal neurons from 18-day-old embryonic
AB Measurement and Cell Viability Assay. Aβ was measured using an Aβ1-42 human fluorimetric ELISA kit (Invitrogen) according to the manufacturer's instructions. Results were measured in a Biotek Synergy HT microplate reader. AlamarBlue and CyQuant NF (Invitrogen) according to the manufacturer's instructions.
To determine whether the reduced levels of AP caused by PKC activators were due to inhibition of Aβ synthesis or activation of Aβ degradation, we applied BR-111 (DHA-CP6) (0.01 to 10 μM) and low concentrations (100 nM) of exogenous monomeric Aβ-42 to cultured SH-SY5Y cells. This concentration of Aβ is too low to produce measurable toxicity or cell death. […]

Row | Structure (SMILES) | effect on PKCγ (PKCγ) | effects on the other PKC isoforms (other PKC isoforms) | ECE activity [1] | potency for PKCε over other PKC isozymes (PKCε) | reduction of cellular levels of Aβ (Aβ)
1 | CCCCCC1CC1CC1CC1CCCCCCCC(=O)O (stereo not drawn) [BR-101, 8-[2-(2-pentyl-cyclopropylmethyl)-cyclopropyl]-octanoic acid] | activated | relatively small effects | sustained increase | greater than 7 fold | –
2 | CCC1CC1CC1CC1CC1CC1CC1CC1CC1CC1CC1CC1CCC(=O)OC (stereo not drawn) [BR-111, methyl-3-(2-((2-((2-((2-((2-((2-ethylcyclopropyl)methyl)cyclopropyl)methyl)cyclopropyl)methyl)-cyclopropyl)methyl)cyclopropyl)methyl)cyclopropyl)propanoate] | – | – | sustained increase | – | 45-63%
